Reference: patent US6285807A, “Fiber optic sensor for long-term analyte measurements in fluids” (Trustees of Tufts College, priority 1998, dated 2001)
Where “and” joins values, the source holds several entries; their conditions need not be identical. Equal values may be shown once. Read-outs that look alike come from different tables or passages of the source.

What was measured:
[1] = 13 and 14; at 21° C.; cited from earlier work
[2] = Sensor calibration for CO2, constants from theoretical fit (indicator in sensor); type: physicochemical; conditions: sensor (at 12° C.) (calculated)
Description: The calibration and operation of the sensor operation of the sensor is based on the Severinghaus electrode principle. When carbon dioxide crosses the membrane, the pH of the indicator solution is given by the Henderson-Hasselbach equation: [formula]
where aT =KH KM pCO2 KH /mol dm^3 atm^-1 is Henry's constant and KM is the membrane constant. Substituting Equation 7 into Equation 5 and rearranging gives: [formula]
The dissolved CO2 concentration was determined using Henry's constant [Cox, J. D., Head A. J. J Chem. Soc. Faraday Trans., 1962, 58, 1839]. […] Also, for this calculation the membrane volume was not corrected for the porosity, or water content, of the membrane. These parameters would have opposite effects. In the calibration, aT was assumed to equal the dissolved CO2 in the bulk solution, such that KM =1. The sensitivity of the sensor is approximately ±1 ppm.
The theoretical equation relating the fluorescence intensity. ratio to pCO2 was compared to test date and is shown by the solid curve in FIG. 6. The pHo value was calculated from Equation 5 using pKin while Io was derived from the above analysis. There was good agreement between experimental and theoretically-derived data.

[3] = 13 and 14, at 21° C., cited from earlier work
[4] = Absorbance/emission spectra of carboxy-SNAFL-1 (excitation at 488 nm); type: physicochemical; conditions: for Emission (Ex. = 488 nm) (acid): acid form; for Emission (Ex. = 488 nm) (acid) / Emission (Ex. = 488 nm) (base) / Emission (Ex. = 488 nm) (isos): at 21° C.; for Emission (Ex. = 488 nm) (base): base form; for Emission (Ex. = 488 nm) (isos): isosbestic
Source text: These peaks are centered at 540 nm and 620 nm and result from the protonated and deprotonated forms of the dyes respectively. This dual wavelength feature of the dye makes it particularly suitable for use in a ratiometric mode which accounts for system instabilities, such as photobleaching and lamp intensity fluctuations. This dye also has an isosbestic point at 625 run (Ex.=488 nm) which can be used for ratiometric measurements to assess the extent of dye photobleaching over time.
The maxima centered at 540 nm and 620 nm arise from the protonated and deprotonated forms of the dye respectively. [drawing 3]
The measurement system 100 comprises a Spectra Physics Model 162A-04 argon-ion laser 105 which provides excitation light radiation, typically at 488 nm. The excitation light is passed through a neutral density filter 110 and an angled dichroic mirror 115 to the proximal end 120 of an optical fiber 125 which conveys the excitation light to the distal end 130 of the fiber 125 and illuminates an optical interrogation zone 135 comprising a fluid sample volume with an indicator dye and analyte. In the presence of the analyte, the excitation light causes the indicator dye to emit emitted light energy in the optical interrogation zone 135, which emitted light is conveyed by the fiber 125 to the proximal end 120 and is deflected through 90° by the front surface 116 of the angled dichroic mirror 115. The emitted light is then focussed with lenses 145, filtered through a long wavelength, band-pass filter 150, and passed through a slit 155 into a monochromater 160. The resulting wavelength-dispersed signal is measured with a Pacific Instruments Model 126. photo-counting detection system. The intensity of the excitation light is measured in photon counts per second as either a function of time or of wavelength examined.

[5] = 13 and 14; cited from earlier work
[6] = Fluorescence emission pH titration of carboxy-SNAFL-1 (curve fits for Io, pKin and B); type: physicochemical; conditions: for I(543/623) (max) / I(543/623) (min) / pKin: at 21° C.
Source text: Where the fluorescence intensity I=dh and I0 =dhT, the fluorescence intensity when the indicator is fully undissociated, Equation 4 becomes: [formula]
In this equation the additional term B is the background fluorescence of the system and is an experimentally-derived value. I can also be the ratio of the fluorescence intensities of the protonated and isosbestic forms, where. I=I545 /Iisos
The titration curves are shown for carboxy-SNAFL-1in distilled water and in a 0.67 M solution of NaCl. The solid lines are the theoretical curve fits using Equation 6. […] Experiments were carried out in 0.67 M NaCl because it is necessary to balance the osmotic pressure of the indicator solution in the sensor to that of the test solution. The osmotic pressure of the seawater is equivalent to 0.67 M NaCI.
The solid lines in FIG. 2 are theoretical fits of Equation 5. The results for Io, pKin, and B are summarized in Table 2 together with typical values reported elsewhere [Walt, D. R, Gabor, G., Goyet, C. Anal. Chim. Actca 1993, 274, 47; DeGrandpre, M. D., Anal. Chem. 1993, 65 (4), 331; Whitaker, J. E., Haugland, R. P., Prendergast, R P. Anal. Biochem. 1991, 194, 330].

[7] = distilled water (25° C.), 488 nm excitation

I(543/623) (max) [2]: 5.54
pKin [2]: 7.98
Emission (Ex. = 488 nm) (acid) ([2]; acid form): 545 nm
Emission (Ex. = 488 nm) (base) ([2]; base form): 610 nm
isosbestic point ([4]; Ex.=488 nm): 625 nm
emission maximum, deprotonated form [4, 7]: 620 nm
emission maximum, protonated form [4, 7]: 540 nm
emission peak, deprotonated form ([4]; excited at 488 nm): 620 nm
emission peak, protonated form ([4]; excited at 488 nm): 540 nm
Emission (Ex. = 488 nm) (acid) ([4]; in 0.67M NaCl): 542 nm
Emission (Ex. = 488 nm) (base) ([4]; in 0.67M NaCl): 620 nm
Emission (Ex. = 488 nm) (isos) ([4]; in 0.67M NaCl): 624 nm
Emission (Ex. = 488 nm) (acid) ([4]; in H2O): 545 nm
Emission (Ex. = 488 nm) (base) ([4]; in H2O): 618 nm
Emission (Ex. = 488 nm) (isos) ([4]; in H2O): 632 nm
effect of increasing ionic strength on maximum fluorescence intensity ([6]; distilled water vs 0.67 M NaCl): decreases with increasing ionic strength
effect of increasing ionic strength on pKin ([6]; distilled water vs 0.67 M NaCl): decreases pKin
I(543/623) (max) ([6]; in 0.67M NaCl): 5.27
I(543/623) (min) ([6]; in 0.67M NaCl): 0.129
pKin ([6]; in 0.67M NaCl): 7.67
I(543/623) (max) ([6]; in H2O): 5.41
I(543/623) (min) ([6]; in H2O): 0.145
pKin ([6]; in H2O): 8.01
Substance: 5' (and 6')-carboxyseminaphthofluorescein [carboxy-SNAFL-1]
I(543/623) (max) [1]: 6.13
I(543/623) (min) [1]: 0.09
pKin [1]: 7.75
Absorbance (acid) ([3]; acid form): 481 nm and 510 nm
Emission (Ex. = 488 nm) (acid) ([3]; acid form): 542 nm
Absorbance (base) ([3]; base form): 539 nm
Emission (Ex. = 488 nm) (base) ([3]; base form): 623 nm
Emission (Ex. = 488 nm) (isos) ([3]; isosbestic): 615 nm
ΔH° [5]: 3.78 kcal/mol
ΔS° [5]: -22.6 cal mol^-1 K^-1
ΔpH/ΔT [5]: 0.0192 ° C.^-1
